# Measured values reported in PubChem BioAssay AID1963965 (Molecular Pharmacology Branch, DTP, NCI, 2024).
# Test system: 996289-038-R-J1-PDC spheroid viability
# Test: Anticancer human tumor 996289-038-R-J1-PDC patient-derived colon adenocarcinoma cell line growth inhibition [PI3K]
# Conditions: spheroids with HUVEC and MSC; for viability, T/C: stronger effect = lower value
# How it was run: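 Agents were dosed from a top concentration near clinical Cmax (otherwise 10 microM) in half-log decrements, alone or combined with PI3K inhibitors. The spheroids contain tumor cells plus endothelial (HUVEC) and MSC stroma; viability is measured.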
# [1] = curve of first compound, second compound 0.0316 µM
# [2] = curve of first compound, second compound 0.1 µM
# [3] = curve of first compound, second compound 0.316 µM
# [4] = curve of first compound, second compound 1 µM
# [5] = second compound 0.0316 µM, first compound 0.0316 µM
# [6] = second compound 0.0316 µM, first compound 0.1 µM
# [7] = second compound 0.0316 µM, first compound 0.316 µM
# [8] = second compound 0.0316 µM, first compound 1 µM
# [9] = second compound 0.0316 µM, first compound 3.16 µM
# [10] = second compound 0.0316 µM, first compound 10 µM
# [11] = second compound 0.1 µM, first compound 0.0316 µM
# [12] = second compound 0.1 µM, first compound 0.1 µM
# [13] = second compound 0.1 µM, first compound 0.316 µM
# [14] = second compound 0.1 µM, first compound 1 µM
# [15] = second compound 0.1 µM, first compound 3.16 µM
# [16] = second compound 0.1 µM, first compound 10 µM
# [17] = second compound 0.316 µM, first compound 0.0316 µM
# [18] = second compound 0.316 µM, first compound 0.1 µM
# [19] = second compound 0.316 µM, first compound 0.316 µM
# [20] = second compound 0.316 µM, first compound 1 µM
# [21] = second compound 0.316 µM, first compound 3.16 µM
# [22] = second compound 0.316 µM, first compound 10 µM
# [23] = second compound 1 µM, first compound 0.0316 µM
# [24] = second compound 1 µM, first compound 0.1 µM
# [25] = second compound 1 µM, first compound 0.316 µM
# [26] = second compound 1 µM, first compound 1 µM
# [27] = second compound 1 µM, first compound 3.16 µM
# [28] = second compound 1 µM, first compound 10 µM
# 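Also: spheroids exposed to compounds for seven days before viability read.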
# 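For viability, T/C in this document: luminescence used as a proxy for viable cell amount; percent viability relative to DMSO vehicle control as 100%.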
structure (smiles),measurement,setting,value
Cn1ncc(Cl)c1-c1cc(C(=O)NC(CN)Cc2cccc(F)c2)sc1Cl (stereo not given) + CC(Nc1ccc2c(c1)OCCn1cc(N3C(=O)OCC3C(F)F)nc1-2)C(N)=O,IC50,"curve of first compound, second compound 0.00316 µM",> 10 µM
same,IC50,"curve of first compound, second compound 0.01 µM",7.33 µM
same,IC50,[1],4.62 µM
same,IC50,[2],1.84 µM
same,IC50,[3],1.83 µM
same,IC50,[4],0.352 µM
same,"viability, T/C","second compound 0.00316 µM, first compound 0.0316 µM",83.3%
same,"viability, T/C","second compound 0.00316 µM, first compound 0.1 µM",82.9%
same,"viability, T/C","second compound 0.00316 µM, first compound 0.316 µM",84.3%
same,"viability, T/C","second compound 0.00316 µM, first compound 1 µM",80%
same,"viability, T/C","second compound 0.00316 µM, first compound 3.16 µM",60%
same,"viability, T/C","second compound 0.00316 µM, first compound 10 µM",54.5%
same,"viability, T/C","second compound 0.01 µM, first compound 0.0316 µM",111%
same,"viability, T/C","second compound 0.01 µM, first compound 0.1 µM",97%
same,"viability, T/C","second compound 0.01 µM, first compound 0.316 µM",83.8%
same,"viability, T/C","second compound 0.01 µM, first compound 1 µM",73.7%
same,"viability, T/C","second compound 0.01 µM, first compound 3.16 µM",58.6%
same,"viability, T/C","second compound 0.01 µM, first compound 10 µM",46.5%
same,"viability, T/C",[5],87.2%
same,"viability, T/C",[6],84.2%
same,"viability, T/C",[7],76.6%
same,"viability, T/C",[8],64.8%
same,"viability, T/C",[9],61.3%
same,"viability, T/C",[10],35.5%
same,"viability, T/C",[11],77.8%
same,"viability, T/C",[12],80.2%
same,"viability, T/C",[13],63.9%
same,"viability, T/C",[14],56%
same,"viability, T/C",[15],46%
same,"viability, T/C",[16],33.6%
same,"viability, T/C",[17],66.9%
same,"viability, T/C",[18],59.6%
same,"viability, T/C",[19],75.7%
same,"viability, T/C",[20],55.3%
same,"viability, T/C",[21],43.2%
same,"viability, T/C",[22],28.9%
same,"viability, T/C",[23],53.5%
same,"viability, T/C",[24],52.6%
same,"viability, T/C",[25],52.6%
same,"viability, T/C",[26],43.9%
same,"viability, T/C",[27],38.4%
same,"viability, T/C",[28],25.8%
Cn1ncnc1[C@H]1c2n[nH]c(=O)c3cc(F)cc(c23)N[C@@H]1c1ccc(F)cc1,"viability, T/C",compound 0.001 µM,105% [middle of 4 runs]
same,"viability, T/C",compound 0.00316 µM,103% [middle of 4 runs]
same,"viability, T/C",compound 0.01 µM,100% [middle of 4 runs]
same,"viability, T/C",compound 0.0316 µM,109% [middle of 4 runs]
same,"viability, T/C",compound 0.1 µM,98.9% [middle of 4 runs]
same,IC50,curve of compound,> 0.1 µM
CC1(C)CCC(Nc2ncc(C(F)(F)F)c(-c3c[nH]c4c(P(C)(C)=O)c(C#N)ccc34)n2)CN1 (stereo not given) + Cc1nc(NC(=O)N2CCCC2C(N)=O)sc1-c1ccnc(C(C)(C)C(F)(F)F)c1,IC50,[1],6.45 µM
same,IC50,[2],6.7 µM
same,IC50,[3],5.83 µM
same,IC50,[4],4.92 µM
same,IC50,"curve of first compound, second compound 3.16 µM",3.62 µM
same,IC50,"curve of first compound, second compound 10 µM",< 0.0316 µM
same,"viability, T/C",[5],103%
same,"viability, T/C",[6],86.8%
same,"viability, T/C",[7],75.6%
same,"viability, T/C",[8],90.1%
same,"viability, T/C",[9],92.2%
same,"viability, T/C",[10],25.6%
same,"viability, T/C",[11],89.9%
same,"viability, T/C",[12],74.1%
same,"viability, T/C",[13],88.2%
same,"viability, T/C",[14],85%
same,"viability, T/C",[15],91.3%
same,"viability, T/C",[16],30.8%
same,"viability, T/C",[17],75.5%
same,"viability, T/C",[18],78%
same,"viability, T/C",[19],85.8%
same,"viability, T/C",[20],79%
same,"viability, T/C",[21],80.2%
same,"viability, T/C",[22],24%
same,"viability, T/C",[23],75%
same,"viability, T/C",[24],70%
same,"viability, T/C",[25],70.8%
same,"viability, T/C",[26],69.7%
same,"viability, T/C",[27],68.1%
same,"viability, T/C",[28],21.4%
same,"viability, T/C","second compound 3.16 µM, first compound 0.0316 µM",62.5%
same,"viability, T/C","second compound 3.16 µM, first compound 0.1 µM",57.9%
same,"viability, T/C","second compound 3.16 µM, first compound 0.316 µM",55.9%
same,"viability, T/C","second compound 3.16 µM, first compound 1 µM",58.7%
same,"viability, T/C","second compound 3.16 µM, first compound 3.16 µM",55%
same,"viability, T/C","second compound 3.16 µM, first compound 10 µM",13.1%
same,"viability, T/C","second compound 10 µM, first compound 0.0316 µM",41.9%
same,"viability, T/C","second compound 10 µM, first compound 0.1 µM",46%
same,"viability, T/C","second compound 10 µM, first compound 0.316 µM",41.7%
same,"viability, T/C","second compound 10 µM, first compound 1 µM",38.8%
same,"viability, T/C","second compound 10 µM, first compound 3.16 µM",36.9%
same,"viability, T/C","second compound 10 µM, first compound 10 µM",10.2%
